Data set [1] can be described thus: microcentrifuge dissolution test (in vitro evaluation of concentration enhancement). Format: physicochemical. Particulars: for AUC: area under concentration-versus-time curve in PBS pH 6.5, 37° C.; for Concentration: dissolved torcetrapib in supernatant, 1000 μg/mL if all drug dissolved. On the procedure:
The solid composition of Example 1 was evaluated in vitro using a microcentrifuge dissolution test as follows. For this test, a sufficient amount of material was added to a microcentrifuge test tube so that the concentration of torcetrapib would have been 1000 μg/mL, if all of the drug had dissolved. The test was run in duplicate. The tubes were placed in a 37° C. temperature-controlled chamber, and 1.8 mL PBS at pH 6.5 and 290 mOsm/kg was added to each respective tube. The samples were quickly mixed using a vortex mixer for about 60 seconds. The samples were centrifuged at 13,000 G at 37° C. for 1 minute. The resulting supernatant solution was then sampled and diluted 1:6 (by volume) with methanol and then analyzed by HPLC. The contents of each tube were mixed on the vortex mixer and allowed to stand undisturbed at 37° C. until the next sample was taken. Samples were collected at 4, 10, 20, 40, 90, and 1200 minutes. Control 1 (C1) consisted of crystalline torcetrapib alone, and a sufficient amount of material was added so that the concentration of drug would have been 1000 μg/mL, if all of the drug had dissolved. The concentrations of drug obtained in these samples were used to determine the maximum drug concentration (“MDC90”) and the area under the concentration-versus-time curve (“AUC90”) during the initial ninety minutes.

The next data set in a line: aqueous solubility. It counts as physicochemical. The conditions noted are these: aqueous medium; aqueous solubility determined at about 22° C. unless otherwise specified. On the procedure:
A second property of hydrophobic drugs is that they have low aqueous solubility. […] Extremely low aqueous solubility often leads to poor or slow absorption of the drug from the fluid of the gastrointestinal tract, when the drug is dosed orally in a conventional manner. For extremely low solubility drugs, absorption generally becomes progressively more difficult as the dose (mass of drug given orally) increases. Thus, a third property of hydrophobic drugs is a very high dose (in mg) to solubility (In mg/ml) ratio (ml). By “very high dose-to-solubility ratio” is meant that the dose-to-solubility ratio may have a value of at least 1000 ml, at least 5,000 ml, or even at least 10,000 ml. The dose-to-solubility ratio may be determined by dividing the dose (in mg) by the aqueous solubility (in mg/ml).
CETP inhibitors, in particular torcetrapib, and methods for preparing such compounds are disclosed in detail in U.S. Pat. Nos. 6,197,786 and 6,313,142, in PCT Application Nos. WO 01/40190A1, WO 02/088085A2, and WO 02/088069A2, the disclosures of which are herein incorporated by reference. Torcetrapib has an unusually low solubility in aqueous environments such as the lumenal fluid of the human GI tract. The aqueous solubility of torcetrapib is less than about 0.04 μg/ml. […]

Setting [2] is: during the initial ninety minutes, PBS pH 6.5, 37° C.

For orientation: AUC means concentration integrated over time. What is called solubility is the concentration that dissolves in the medium under given conditions. A lower solubility goes with a poorly soluble substance.

Consider `CCOC(=O)N1c2ccc(C(F)(F)F)cc2[C@@H](N(Cc2cc(C(F)(F)F)cc(C(F)(F)F)c2)C(=O)OC)C[C@H]1CC` [torcetrapib, [2R,4S]-4-[(3,5-bis-trifluoromethyl-benzyl)-methoxycarbonyl-amino]-2-ethyl-6-trifluoromethyl-3,4-dihydro-2H-quinoline-1-carboxylic acid ethyl ester], for which the AUC is 0 µg·min/mL in data set [1] (up to time 0 min); below 2 µg·min/mL in data set [1] (up to time 4 min); below 8 µg·min/mL in data set [1] (up to time 10 min); below 18 µg·min/mL in data set [1] (up to time 20 min); below 38 µg·min/mL in data set [1] (up to time 40 min); below 88 µg·min/mL in data set [1] (up to time 90 min). Further, the area under the curve (AUC) in data set [1] (up to time 1200 min) was <1,200 min*μg/mL. Also, the C1200 in data set [1] (concentration at 1200 minutes, PBS pH 6.5, 37° C.) is below 1 µg/mL. The Concentration in data set [1] (PBS pH 6.5, 37° C., time 0 min) was 0 ng/mL; in data set [1] (PBS pH 6.5, 37° C., time 4 min) it was below 1000 ng/mL; in data set [1] (PBS pH 6.5, 37° C., time 10 min) it was below 1000 ng/mL; in data set [1] (PBS pH 6.5, 37° C., time 20 min) it was below 1000 ng/mL; in data set [1] (PBS pH 6.5, 37° C., time 40 min), below 1000 ng/mL; in data set [1] (PBS pH 6.5, 37° C., time 90 min), below 1000 ng/mL. In addition, the Concentration in data set [1] (PBS pH 6.5, 37° C., time 1200 min) is below 1000 ng/mL. In data set [1] (setting [2]), the “AUC90 (area under the concentration-versus-time curve)” value was below 88 µg·min/mL. Besides, in data set [1] (setting [2]), the “MDC90 (maximum drug concentration)” value is below 1 µg/mL. In “aqueous solubility”, this compound yielded a solubility below 0.04 µg/mL.

The values are drawn from patent US20090169583A1, “Solid Adsorbates of Hydrophobic Drugs” (Pfizer, Inc., priority 2005, published 2009).
